The source of these data is PMC10447463, “Data-mining unveils structure–property–activity correlation of viral infectivity enhancing self-assembling peptides” (Nature Communications, 2023).

This series is described as follows: Aggregate analysis by widefield fluorescence microscopy. The format is physicochemical. The gist of the method:
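Peptides diluted from 10 mg/mL DMSO stock to 1 mg/mL in PBS and aged 1 d at RT were diluted to 0.1 mg/mL with 50 µM ThT, then imaged with a 10x objective in fluorescence (ex 480/40, em 527/30 nm) and brightfield. Particles >10 µm^2 were counted by automated object counting over ≥3 images.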

Where [1] appears, read: Fig S8 panels A, C, 3 fields of 1330 µm x 1330 µm.
[2] abbreviates: Fig S8 panels B, D, average aggregate area, 3 fields of 1330 µm x 1330 µm.
Where [3] appears, read: Fig S8 panels B, D, median aggregate area, 3 fields of 1330 µm x 1330 µm.
Setting [4] is: Fig S8 panels B, D, 3 fields of 1330 µm x 1330 µm.
Setting [5] is: Fig S8 panels B, D, widefield fluorescence microscopy, 3 fields of 1330 µm x 1330 µm.

Regarding HHHHKIKIKIKIYYYY [TM6], under “Fig S8 panels A, C”, the “Avg Area in 3 *(1330 µm *1330 µm)” value is listed as 71.63, the “Log 10 Number of aggregates in 3 * (1330 µm *1330 µm)” value (“Log 10 Number of aggregates in 3 *” for short) was 2.1683, the “Median Area in 3 * (1330 µm *1330 µm)” value is on record as 19.72 and the “log Avg Area in 3 * ( (1330 µm *1330 µm))” value (“log Avg Area in 3 *” for short) is given as 1.855. Also, where the note is “Fig S8 panels A, C”, the “log Median Area in 3 * ( (1330 µm *1330 µm))” value (shortened to “log Median Area in 3 *”) is listed as 1.295 and the “log Total Area of all particles in 3 * (1330 µm *1330 µm)” value (shortened to “log Total Area of all particles in 3 *”) turned out to be 4.023. For the same substance, the “Number of aggregates in 3 * (1330 µm *1330 µm)” value under setting [1] stood at 147.3. The “Avg Area in 3 *(1330 µm *1330 µm)” value under setting [2] came out at 71.63. Moreover, the “Median Area in 3 * (1330 µm *1330 µm)” value under setting [3] came out at 19.72. The “Total Area of all particles in 3 * (1330 µm *1330 µm)” value under setting [4] was determined as 10553.37833. Besides, the “Number of aggregates in 3 * (1330 µm *1330 µm)” value under setting [5] turned out to be 147.3.

KFKFQFNMWQ [JG4]: where the note is “Fig S8 panels A, C”, the “Avg Area in 3 *(1330 µm *1330 µm)” value stood at 599.2, the “Log 10 Number of aggregates in 3 *” value came out at 1.806, the “Median Area in 3 * (1330 µm *1330 µm)” value is 25.773 and the “log Avg Area in 3 *” value came out at 2.778. Moreover, for the setting “Fig S8 panels A, C”, the “log Median Area in 3 *” value amounted to 1.411 and the “log Total Area of all particles in 3 *” value worked out at 4.584. In addition, the “Number of aggregates in 3 * (1330 µm *1330 µm)” value under setting [1] is 64. Also, under setting [2], the “Avg Area in 3 *(1330 µm *1330 µm)” value amounted to 599.2. Also, the “Median Area in 3 * (1330 µm *1330 µm)” value under setting [3] was found to be 25.773. Under setting [4], the “Total Area of all particles in 3 * (1330 µm *1330 µm)” value was found to be 38349.21133. Further, the “Number of aggregates in 3 * (1330 µm *1330 µm)” value under setting [5] is listed as 64.

Consider KIKIQIC [TM112 / CN11], for which, where the note is “Fig S8 panels A, C”, the “Avg Area in 3 *(1330 µm *1330 µm)” value was 23.45, the “Log 10 Number of aggregates in 3 *” value turned out to be 1.912, the “Median Area in 3 * (1330 µm *1330 µm)” value worked out at 12.96 and the “log Avg Area in 3 *” value is 1.37. Moreover, where the note is “Fig S8 panels A, C”, the “log Median Area in 3 *” value came to 1.1125 and the “log Total Area of all particles in 3 *” value came out at 3.282. Moreover, under setting [1], the “Number of aggregates in 3 * (1330 µm *1330 µm)” value amounted to 81.67. Further, the “Avg Area in 3 *(1330 µm *1330 µm)” value under setting [2] stood at 23.45. Moreover, under setting [3], the “Median Area in 3 * (1330 µm *1330 µm)” value is 12.96. Also, the “Total Area of all particles in 3 * (1330 µm *1330 µm)” value under setting [4] is recorded as 1915.068. Moreover, the “Number of aggregates in 3 * (1330 µm *1330 µm)” value under setting [5] was 81.67.

As for KIKQIINMWQ [JG2], where the note is “Fig S8 panels A, C”, the “Avg Area in 3 *(1330 µm *1330 µm)” value is recorded as 398.2, the “Log 10 Number of aggregates in 3 *” value worked out at 1.591, the “Median Area in 3 * (1330 µm *1330 µm)” value was 199.4905 and the “log Avg Area in 3 *” value is 2.6. Besides, for the setting “Fig S8 panels A, C”, the “log Median Area in 3 *” value turned out to be 2.3 and the “log Total Area of all particles in 3 *” value worked out at 4.191. Moreover, the “Number of aggregates in 3 * (1330 µm *1330 µm)” value under setting [1] is 39. The “Avg Area in 3 *(1330 µm *1330 µm)” value under setting [2] was determined as 398.2. Under setting [3], the “Median Area in 3 * (1330 µm *1330 µm)” value is given as 199.4905. Moreover, under setting [4], the “Total Area of all particles in 3 * (1330 µm *1330 µm)” value is 15530.404. Besides, under setting [5], the “Number of aggregates in 3 * (1330 µm *1330 µm)” value came to 39.

Regarding KWKWQW [KB3], under “Fig S8 panels A, C”, the “Avg Area in 3 *(1330 µm *1330 µm)” value is recorded as 112, the “Log 10 Number of aggregates in 3 *” value was 1.442, the “Median Area in 3 * (1330 µm *1330 µm)” value came to 41.405 and the “log Avg Area in 3 *” value is given as 2.049. Further, where the note is “Fig S8 panels A, C”, the “log Median Area in 3 *” value came out at 1.617 and the “log Total Area of all particles in 3 *” value is 3.491. Further, the “Number of aggregates in 3 * (1330 µm *1330 µm)” value under setting [1] was 27.67. Also, the “Avg Area in 3 *(1330 µm *1330 µm)” value under setting [2] came to 112. The “Median Area in 3 * (1330 µm *1330 µm)” value under setting [3] amounted to 41.405. Moreover, the “Total Area of all particles in 3 * (1330 µm *1330 µm)” value under setting [4] is reported as 3098. The “Number of aggregates in 3 * (1330 µm *1330 µm)” value under setting [5] is 27.67.

As to QCKAKAQA [CK24], under setting [2], the “Avg Area in 3 *(1330 µm *1330 µm)” value is listed as 0. Moreover, the “Median Area in 3 * (1330 µm *1330 µm)” value under setting [3] worked out at 0. Further, the “Total Area of all particles in 3 * (1330 µm *1330 µm)” value under setting [4] amounted to 0. In addition, the “Number of aggregates in 3 * (1330 µm *1330 µm)” value under setting [5] turned out to be 0.

For QCKFKQFFNMWQ [CK10], the “Avg Area in 3 *(1330 µm *1330 µm)” value under setting [2] worked out at 30.56. The “Median Area in 3 * (1330 µm *1330 µm)” value under setting [3] came to 15.07. Moreover, the “Total Area of all particles in 3 * (1330 µm *1330 µm)” value under setting [4] is 55430.97933. Besides, the “Number of aggregates in 3 * (1330 µm *1330 µm)” value under setting [5] was determined as 1814.

Regarding QCKIKIQINMWQ [EF-C opt], for the setting “Fig S8 panels A, C”, the “Avg Area in 3 *(1330 µm *1330 µm)” value was found to be 21.24, the “Log 10 Number of aggregates in 3 *” value is on record as 2.6, the “Median Area in 3 * (1330 µm *1330 µm)” value was 11.97 and the “log Avg Area in 3 *” value is on record as 1.327. Moreover, where the note is “Fig S8 panels A, C”, the “log Median Area in 3 *” value was 1.078 and the “log Total Area of all particles in 3 *” value stood at 3.927. Moreover, the “Number of aggregates in 3 * (1330 µm *1330 µm)” value under setting [1] was 398. The “Avg Area in 3 *(1330 µm *1330 µm)” value under setting [2] is 21.24. Moreover, the “Median Area in 3 * (1330 µm *1330 µm)” value under setting [3] was 11.97. Also, under setting [4], the “Total Area of all particles in 3 * (1330 µm *1330 µm)” value was found to be 8454. Moreover, under setting [5], the “Number of aggregates in 3 * (1330 µm *1330 µm)” value is 398.
